Results from PubChem BioAssay (NCI).
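Interpolation was linear, between the two tested concentrations surrounding the appropriate level; five concentrations were tested over 48 hours in 96-well plates. At the GI50, growth is halved. Definition used: TGI = concentration required for complete inhibition of growth.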

Legend:
Assay in all cases: inhibition of tumour cell growth, NCI panel, 48 h
786-0 renal = tested on: 786-0 renal
A498 renal = tested on: A498 renal
A549 NSCLC = tested on: A549 NSCLC
ACHN renal = tested on: ACHN renal
BT-549 breast = tested on: BT-549 breast
CAKI-1 renal = tested on: CAKI-1 renal
CCRF-CEM leukemia = tested on: CCRF-CEM leukemia
COLO 205 colon = tested on: COLO 205 colon
DU-145 prostate = tested on: DU-145 prostate
HCC-2998 colon = tested on: HCC-2998 colon
HCT-116 colon = tested on: HCT-116 colon
HCT-15 colon = tested on: HCT-15 colon
HL-60(TB) leukemia = tested on: HL-60(TB) leukemia
HOP-62 NSCLC = tested on: HOP-62 NSCLC
HOP-92 NSCLC = tested on: HOP-92 NSCLC
HS 578T breast = tested on: HS 578T breast
HT29 colon = tested on: HT29 colon
IGROV1 ovarian = tested on: IGROV1 ovarian
K-562 leukemia = tested on: K-562 leukemia
KM12 colon = tested on: KM12 colon
LOX IMVI melanoma = tested on: LOX IMVI melanoma
M14 melanoma = tested on: M14 melanoma
MALME-3M melanoma = tested on: MALME-3M melanoma
MCF7 breast = tested on: MCF7 breast
MDA-MB-231 breast = tested on: MDA-MB-231 breast
MDA-MB-435 = tested on: MDA-MB-435
MOLT-4 leukemia = tested on: MOLT-4 leukemia
NCI-H226 lung = tested on: NCI-H226 lung
NCI-H23 lung = tested on: NCI-H23 lung
NCI-H460 lung = tested on: NCI-H460 lung
NCI-H522 lung = tested on: NCI-H522 lung
NCI/ADR-RES ovarian = tested on: NCI/ADR-RES ovarian
OVCAR-3 ovarian = tested on: OVCAR-3 ovarian
OVCAR-4 ovarian = tested on: OVCAR-4 ovarian
OVCAR-5 ovarian = tested on: OVCAR-5 ovarian
OVCAR-8 ovarian = tested on: OVCAR-8 ovarian
PC-3 prostate = tested on: PC-3 prostate
RPMI-8226 leukemia = tested on: RPMI-8226 leukemia
RXF 393 renal = tested on: RXF 393 renal
SF-268 CNS = tested on: SF-268 CNS
SF-295 CNS = tested on: SF-295 CNS
SF-539 CNS = tested on: SF-539 CNS
SK-MEL-2 melanoma = tested on: SK-MEL-2 melanoma
SK-MEL-28 melanoma = tested on: SK-MEL-28 melanoma
SK-MEL-5 melanoma = tested on: SK-MEL-5 melanoma
SK-OV-3 ovarian = tested on: SK-OV-3 ovarian
SN12C renal = tested on: SN12C renal
SNB-19 CNS = tested on: SNB-19 CNS
SNB-75 CNS = tested on: SNB-75 CNS
SR leukemia = tested on: SR leukemia
SW-620 colon = tested on: SW-620 colon
T-47D breast = tested on: T-47D breast
TK-10 renal = tested on: TK-10 renal
U251 CNS = tested on: U251 CNS
UACC-62 melanoma = tested on: UACC-62 melanoma
UO-31 renal = tested on: UO-31 renal

FC(F)(F)c1cc(NC2=NCCN=C(Nc3cc(C(F)(F)F)cc(C(F)(F)F)c3)SS2)cc(C(F)(F)F)c1
GI50 (786-0 renal): 5.26 µM
TGI (786-0 renal): 17.7 µM
GI50 (A498 renal): 2.24 µM
TGI (A498 renal): 9.68 µM
GI50 (A549 NSCLC): 3.68 µM
TGI (A549 NSCLC): 17.4 µM
GI50 (ACHN renal): 2.6 µM
TGI (ACHN renal): 8.93 µM
GI50 (BT-549 breast): 6.2 µM
TGI (BT-549 breast): 19.1 µM
GI50 (CAKI-1 renal): 3.12 µM
TGI (CAKI-1 renal): 13.1 µM
GI50 (CCRF-CEM leukemia): 4.28 µM
TGI (CCRF-CEM leukemia): 27 µM
GI50 (COLO 205 colon): 3.47 µM
TGI (COLO 205 colon): 13.2 µM
GI50 (DU-145 prostate): 6.24 µM
TGI (DU-145 prostate): 18.9 µM
GI50 (HCC-2998 colon): 6.15 µM
TGI (HCC-2998 colon): 19.3 µM
GI50 (HCT-116 colon): 3.73 µM
TGI (HCT-116 colon): 12.5 µM
GI50 (HCT-15 colon): 3.33 µM
TGI (HCT-15 colon): 14.2 µM
GI50 (HL-60(TB) leukemia): 3.27 µM
TGI (HL-60(TB) leukemia): 15.8 µM
GI50 (HOP-62 NSCLC): 13.1 µM
TGI (HOP-62 NSCLC): 31.3 µM
GI50 (HOP-92 NSCLC): 1.52 µM
TGI (HOP-92 NSCLC): 5.01 µM
GI50 (HS 578T breast): 5.08 µM
TGI (HS 578T breast): 27.6 µM
GI50 (HT29 colon): 3.85 µM
TGI (HT29 colon): 14.1 µM
GI50 (IGROV1 ovarian): 6.04 µM
TGI (IGROV1 ovarian): 26.3 µM
GI50 (K-562 leukemia): 3.58 µM
TGI (K-562 leukemia): 17.6 µM
GI50 (KM12 colon): 3.72 µM
TGI (KM12 colon): 12.3 µM
GI50 (LOX IMVI melanoma): 4.59 µM
TGI (LOX IMVI melanoma): 16.9 µM
GI50 (M14 melanoma): 6.87 µM
TGI (M14 melanoma): 26.6 µM
GI50 (MALME-3M melanoma): 4.12 µM
TGI (MALME-3M melanoma): 15.5 µM
GI50 (MCF7 breast): 2.9 µM
TGI (MCF7 breast): 12.6 µM
GI50 (MDA-MB-231 breast): 3.59 µM
TGI (MDA-MB-231 breast): 15 µM
GI50 (MDA-MB-435): 3.83 µM
TGI (MDA-MB-435): 14.1 µM
GI50 (MOLT-4 leukemia): 4.71 µM
TGI (MOLT-4 leukemia): 28 µM
GI50 (NCI-H226 lung): 3.07 µM
TGI (NCI-H226 lung): 16.2 µM
GI50 (NCI-H23 lung): 4.75 µM
TGI (NCI-H23 lung): 17.4 µM
GI50 (NCI-H460 lung): 3.7 µM
TGI (NCI-H460 lung): 14.2 µM
GI50 (NCI-H522 lung): 2.84 µM
TGI (NCI-H522 lung): 10.6 µM
GI50 (NCI/ADR-RES ovarian): 5.23 µM
TGI (NCI/ADR-RES ovarian): 21.5 µM
GI50 (OVCAR-3 ovarian): 2.94 µM
TGI (OVCAR-3 ovarian): 8.64 µM
GI50 (OVCAR-4 ovarian): 3.65 µM
TGI (OVCAR-4 ovarian): 17 µM
GI50 (OVCAR-5 ovarian): 5.94 µM
TGI (OVCAR-5 ovarian): 19.7 µM
GI50 (OVCAR-8 ovarian): 3.7 µM
TGI (OVCAR-8 ovarian): 16.9 µM
GI50 (PC-3 prostate): 3 µM
TGI (PC-3 prostate): 12.1 µM
GI50 (RPMI-8226 leukemia): 2.58 µM
TGI (RPMI-8226 leukemia): 8.8 µM
GI50 (RXF 393 renal): 2.66 µM
TGI (RXF 393 renal): 11.2 µM
GI50 (SF-268 CNS): 5.68 µM
TGI (SF-268 CNS): 19.8 µM
GI50 (SF-295 CNS): 3.08 µM
TGI (SF-295 CNS): 12.2 µM
GI50 (SF-539 CNS): 5.21 µM
TGI (SF-539 CNS): 18.3 µM
GI50 (SK-MEL-2 melanoma): 4.49 µM
TGI (SK-MEL-2 melanoma): 14.3 µM
GI50 (SK-MEL-28 melanoma): 6.07 µM
TGI (SK-MEL-28 melanoma): 19.4 µM
GI50 (SK-MEL-5 melanoma): 3.2 µM
TGI (SK-MEL-5 melanoma): 11.9 µM
GI50 (SK-OV-3 ovarian): 8.63 µM
TGI (SK-OV-3 ovarian): 54.3 µM
GI50 (SN12C renal): 3.29 µM
TGI (SN12C renal): 13.1 µM
GI50 (SNB-19 CNS): 4.08 µM
TGI (SNB-19 CNS): 15.4 µM
GI50 (SNB-75 CNS): 9.35 µM
TGI (SNB-75 CNS): 45.6 µM
GI50 (SR leukemia): 3.76 µM
TGI (SR leukemia): 20.4 µM
GI50 (SW-620 colon): 3.71 µM
TGI (SW-620 colon): 14.8 µM
GI50 (T-47D breast): 4.22 µM
TGI (T-47D breast): 23.7 µM
GI50 (TK-10 renal): 5.25 µM
TGI (TK-10 renal): 19.8 µM
GI50 (U251 CNS): 2.82 µM
TGI (U251 CNS): 10.7 µM
GI50 (UACC-62 melanoma): 3.55 µM
TGI (UACC-62 melanoma): 14.5 µM
GI50 (UO-31 renal): 2.66 µM
TGI (UO-31 renal): 11.9 µM
